In patent US11786519B2, “Apoptosis-inducing agents for the treatment of cancer and immune and autoimmune diseases” (AbbVie Inc., priority 2011, dated 2023):

These compounds were tested against Bcl-xL (Homo sapiens, UniProt Q07817) (assay: TR-FRET binding assay, competition with F-Bak for Bcl-xL). Settings: competition with F-Bak probe, GST-Bcl-xL.
Method: Determination of the utility of compounds having Formula (I) as binders to and inhibitors of anti-apoptotic Bcl-xL proteins was performed using the Time Resolved-Fluorescence Resonance Energy Transfer (TR-FRET) Assay. Tb-anti-GST antibody was purchased from Invitrogen (Catalog No. PV4216).
The measurement of competition of compounds of the invention with F-Bak for a Bcl-2 family protein (Bcl-xL) binding site using a Time Resolved Fluorescence Resonance Energy Transfer (TR-FRET) binding assay:
Test compounds were serially diluted in DMSO starting at 50 µM (2× starting concentration; 10% DMSO) and 10 μL transferred into a 384-well plate.
The samples are then mixed on a shaker for 1 minute then incubated for an additional 2 hours at room temperature. For each assay plate, a probe/antibody and protein/antibody/probe mixture were included as a negative and a positive control, respectively. Fluorescence was measured on the ENVISION plate reader (Perkin Elmer) using a 340/35 nm excitation filter and 520/525 (F-Bak) and 495/510 nm ([…]) emission filters. Dissociation constants (Ki) were determined using Wang's equation (Wang, Z. X. An exact mathematical expression for describing competitive binding of two different ligands to a protein molecule. FEBS Lett. 1995 360:111-114). The TR-FRET assay can be performed in the presence of varying concentrations of human serum (HS) or fetal bovine serum (FBS).

Chain of Bcl-xL (Q07817 whole entry): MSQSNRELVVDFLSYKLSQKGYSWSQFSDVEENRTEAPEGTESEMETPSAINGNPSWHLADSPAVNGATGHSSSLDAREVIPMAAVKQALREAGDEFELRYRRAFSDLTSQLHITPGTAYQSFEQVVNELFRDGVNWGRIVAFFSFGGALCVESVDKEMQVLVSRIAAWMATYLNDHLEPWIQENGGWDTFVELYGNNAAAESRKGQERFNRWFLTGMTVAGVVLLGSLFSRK

SMILES | Ki [nM]
O=C(Nc1nc2ccccc2s1)c1cccc2c1CN(c1ccc(-c3cnn(CC45CC6CC(CC(C6)C4)C5)c3)c(C(=O)O)n1)CC2 [Example 1, 6-[8-(1,3-benzothiazol-2-ylcarbamoyl)-3,4-dihydroisoquinolin-2(1H)-yl]-3-{1-[tricyclo[3.3.1.1^3,7]dec-1-ylmethyl]-1H-pyrazol-4-yl}pyridine-2-carboxylic acid] | < 0.1
O=C(Nc1nc2ccccc2s1)c1cccc2c1CN(c1ccc(-c3cnn(CC4CCC5(CCC5)CC4)c3)c(C(=O)O)n1)CC2 [Example 4, 6-[8-(1,3-benzothiazol-2-ylcarbamoyl)-3,4-dihydroisoquinolin-2(1H)-yl]-3-[1-(spiro[3.5]non-7-ylmethyl)-1H-pyrazol-4-yl]pyridine-2-carboxylic acid] | 0.5
O=C(Nc1nc2ccccc2s1)c1cccc2c1CN(c1ccc(-c3cnn(CC45CC6CC(CC(O)(C6)C4)C5)c3)c(C(=O)O)n1)CC2 [Example 6, 6-[8-(1,3-benzothiazol-2-ylcarbamoyl)-3,4-dihydroisoquinolin-2(1H)-yl]-3-(1-{[3-hydroxytricyclo[3.3.1.1^3,7]dec-1-yl]methyl}-1H-pyrazol-4-yl)pyridine-2-carboxylic acid] | < 0.1
COC12CC3CC(CC(Cn4cc(-c5ccc(N6CCc7cccc(C(=O)Nc8nc9ccccc9s8)c7C6)nc5C(=O)O)cn4)(C3)C1)C2 [Example 7, 6-[8-(1,3-benzothiazol-2-ylcarbamoyl)-3,4-dihydroisoquinolin-2(1H)-yl]-3-(1-{[3-methoxytricyclo[3.3.1.1^3,7]dec-1-yl]methyl}-1H-pyrazol-4-yl)pyridine-2-carboxylic acid] | < 0.1
COCCOC12CC3CC(CC(Cn4cc(-c5ccc(N6CCc7cccc(C(=O)Nc8nc9ccccc9s8)c7C6)nc5C(=O)O)cn4)(C3)C1)C2 [Example 8, 6-[8-(1,3-benzothiazol-2-ylcarbamoyl)-3,4-dihydroisoquinolin-2(1H)-yl]-3-(1-{[3-(2-methoxyethoxy)tricyclo[3.3.1.1^3,7]dec-1-yl]methyl}-1H-pyrazol-4-yl)pyridine-2-carboxylic acid] | < 0.1
O=C(Nc1nc2ccccc2s1)c1cccc2c1CN(c1ccc(-c3cnn(CC4C5CC6CC(C5)CC4C6)c3)c(C(=O)O)n1)CC2 (stereo not drawn) [Example 10, 6-[8-(1,3-benzothiazol-2-ylcarbamoyl)-3,4-dihydroisoquinolin-2(1H)-yl]-3-[1-(tricyclo[3.3.1.1^3,7]dec-2-ylmethyl)-1H-pyrazol-4-yl]pyridine-2-carboxylic acid] | < 0.1
O=C(Nc1nc2ccccc2s1)c1cccc2c1CN(c1ccc(-c3cnn(CC45CC6CC(CC(Br)(C6)C4)C5)c3)c(C(=O)O)n1)CC2 [Example 11, 6-[8-(1,3-benzothiazol-2-ylcarbamoyl)-3,4-dihydroisoquinolin-2(1H)-yl]-3-(1-{[3-bromotricyclo[3.3.1.1^3,7]dec-1-yl]methyl}-1H-pyrazol-4-yl)pyridine-2-carboxylic acid] | < 0.1
CC(C)OC12CC3CC(CC(Cn4cc(-c5ccc(N6CCc7cccc(C(=O)Nc8nc9ccccc9s8)c7C6)nc5C(=O)O)cn4)(C3)C1)C2 [Example 12, 6-[8-(1,3-benzothiazol-2-ylcarbamoyl)-3,4-dihydroisoquinolin-2(1H)-yl]-3-(1-{[3-(propan-2-yloxy)tricyclo[3.3.1.1^3,7]dec-1-yl]methyl}-1H-pyrazol-4-yl)pyridine-2-carboxylic acid] | < 0.1
O=C(Nc1nc2ccccc2s1)c1cccc2c1CN(c1ccc(-c3cnn(CC45CC6CC(CC(C6)O4)C5)c3)c(C(=O)O)n1)CC2 [Example 13, 6-[8-(1,3-benzothiazol-2-ylcarbamoyl)-3,4-dihydroisoquinolin-2(1H)-yl]-3-[1-(2-oxatricyclo[3.3.1.1^3,7]dec-1-ylmethyl)-1H-pyrazol-4-yl]pyridine-2-carboxylic acid] | < 0.1
O=C(Nc1nc2ccccc2s1)c1cccc2c1CN(c1ccc(-c3cnn(CC45CC6CC(C4)CC(N4CCOCC4)(C6)C5)c3)c(C(=O)O)n1)CC2 [Example 15, 6-[8-(1,3-benzothiazol-2-ylcarbamoyl)-3,4-dihydroisoquinolin-2(1H)-yl]-3-(1-{[3-(morpholin-4-yl)tricyclo[3.3.1.1^3,7]dec-1-yl]methyl}-1H-pyrazol-4-yl)pyridine-2-carboxylic acid] | < 0.1
Cc1c(OCC23CC4CC(CC(C4)C2)C3)cccc1-c1ccc(N2CCc3cccc(C(=O)Nc4nc5ccccc5s4)c3C2)nc1C(=O)O [Example 21, 6-[8-(1,3-benzothiazol-2-ylcarbamoyl)-3,4-dihydroisoquinolin-2(1H)-yl]-3-{2-methyl-3-[tricyclo[3.3.1.1^3,7]dec-1-ylmethoxy]phenyl}pyridine-2-carboxylic acid] | 0.6
Cc1c(-c2ccc(N3CCc4cccc(C(=O)Nc5nc6ccccc6s5)c4C3)nc2C(=O)O)ccnc1OCC12CC3CC(CC(C3)C1)C2 [Example 27, 6-[8-(1,3-benzothiazol-2-ylcarbamoyl)-3,4-dihydroisoquinolin-2(1H)-yl]-3′-methyl-2′-(tricyclo[3.3.1.1^3,7]dec-1-ylmethoxy)-3,4′-bipyridine-2-carboxylic acid] | 0.1
Cc1c(-c2ccc(N3CCc4cccc(C(=O)Nc5nc6ncccc6s5)c4C3)nc2C(=O)O)cnn1CC12CC3CC(CC(C3)C1)C2 [Example 30, 3-[5-methyl-1-(tricyclo[3.3.1.1^3,7]dec-1-ylmethyl)-1H-pyrazol-4-yl]-6-[8-([1,3]thiazolo[4,5-b]pyridin-2-ylcarbamoyl)-3,4-dihydroisoquinolin-2(1H)-yl]pyridine-2-carboxylic acid] | < 0.1
Cc1c(-c2ccc(N3CCc4cccc(C(=O)Nc5nc6ccccc6s5)c4C3)nc2C(=O)O)cc(C#N)n1CCC12CC3CC(CC(C3)C1)C2 [Example 34, 6-[8-(1,3-benzothiazol-2-ylcarbamoyl)-3,4-dihydroisoquinolin-2(1H)-yl]-3-{5-cyano-2-methyl-1-[2-(tricyclo[3.3.1.1^3,7]dec-1-yl)ethyl]-1H-pyrrol-3-yl}pyridine-2-carboxylic acid] | 0.4
COC12CC3(C)CC(C)(CC(Cn4ncc(-c5ccc(N6CCc7cccc(C(=O)Nc8nc9ccccc9s8)c7C6)nc5C(=O)O)c4C)(C3)C1)C2 [Example 38, 6-[8-(1,3-benzothiazol-2-ylcarbamoyl)-3,4-dihydroisoquinolin-2(1H)-yl]-3-(1-{[3-methoxy-5,7-dimethyltricyclo[3.3.1.1^3,7]dec-1-yl]methyl}-5-methyl-1H-pyrazol-4-yl)pyridine-2-carboxylic acid] | < 0.1
COC12CC3CC(CC(Cn4ncc(-c5ccc(N6CCc7cccc(C(=O)Nc8nc9ccccc9s8)c7C6)nc5C(=O)NS(=O)(=O)N5CCOCC5)c4C)(C3)C1)C2 [Example 39, N-(1,3-benzothiazol-2-yl)-2-{5-(1-{[3-methoxytricyclo[3.3.1.1^3,7]dec-1-yl]methyl}-5-methyl-1H-pyrazol-4-yl)-6-[(morpholin-4-ylsulfonyl)carbamoyl]pyridin-2-yl}-1,2,3,4-tetrahydroisoquinoline-8-carboxamide] | 12
COC12CC3CC(CC(Cn4ncc(-c5ccc(N6CCc7cccc(C(=O)Nc8nc9ccccc9s8)c7C6)nc5C(=O)NS(=O)(=O)C5CC5)c4C)(C3)C1)C2 [Example 41, N-(1,3-benzothiazol-2-yl)-2-{6-[(cyclopropylsulfonyl)carbamoyl]-5-(1-{[3-methoxytricyclo[3.3.1.1^3,7]dec-1-yl]methyl}-5-methyl-1H-pyrazol-4-yl)pyridin-2-yl}-1,2,3,4-tetrahydroisoquinoline-8-carboxamide] | < 0.1
O=C(Nc1nc2ccccc2s1)c1cccc2c1CN(c1ccc(-c3cnn(CC45CC6CC(CC(C6)C4)C5)c3Cl)c(C(=O)O)n1)CC2 [Example 42, 6-[8-(1,3-benzothiazol-2-ylcarbamoyl)-3,4-dihydroisoquinolin-2(1H)-yl]-3-{5-chloro-1-[tricyclo[3.3.1.1^3,7]dec-1-ylmethyl]-1H-pyrazol-4-yl}pyridine-2-carboxylic acid] | 0.3
N#Cc1c(NC23CC4CC(CC(C4)C2)C3)cccc1-c1ccc(N2CCc3cccc(C(=O)Nc4nc5ccccc5s4)c3C2)nc1C(=O)O [Example 47, 6-[8-(1,3-benzothiazol-2-ylcarbamoyl)-3,4-dihydroisoquinolin-2(1H)-yl]-3-{2-cyano-3-[tricyclo[3.3.1.1^3,7]dec-1-ylamino]phenyl}pyridine-2-carboxylic acid] | 0.2
Cc1c(NC(=O)C23CC4CC(CC(C4)C2)C3)cccc1-c1ccc(N2CCc3cccc(C(=O)Nc4nc5ccccc5s4)c3C2)nc1C(=O)O [Example 50, 6-[8-(1,3-benzothiazol-2-ylcarbamoyl)-3,4-dihydroisoquinolin-2(1H)-yl]-3-(2-methyl-3-{[tricyclo[3.3.1.1^3,7]dec-1-ylcarbonyl]amino}phenyl)pyridine-2-carboxylic acid] | 9
Cc1c(-c2ccc(N3CCc4cccc(C(=O)Nc5nc6ccccc6s5)c4C3)nc2C(=O)O)cccc1S(=O)(=O)NC12CC3CC(CC(C3)C1)C2 [Example 51, 6-[8-(1,3-benzothiazol-2-ylcarbamoyl)-3,4-dihydroisoquinolin-2(1H)-yl]-3-{2-methyl-3-[tricyclo[3.3.1.1^3,7]dec-1-ylsulfamoyl]phenyl}pyridine-2-carboxylic acid] | 0.3
